Key:
[1] = Compound was tested for its plasma clearance rate in Sprague Dawley rats; details: rat
[2] = Compound was tested for its plasma volume distribution in Sprague Dawley rats; details: rat
[3] = Compound was tested for its plasma half life in Sprague Dawley rats; details: rat
in vivo = details: rhesus monkey, plasma, iv, 0.75 mg/kg
Description: Compound was tested for its plasma clearance rate in rhesus monkey at a dose of 0.75 mg/kg iv/ 1.5 mg/kg po

SMILES | clearance [1] [mL/min/kg] | Vd [2] [L/kg] | half-life [3] [min] | clearance (in vivo) [mL/min/kg]
COc1cccc(F)c1-c1ccc([C@@H](CC(=O)O)NC(=O)[C@]2(C)CCCN2S(=O)(=O)c2cc(Cl)cc(Cl)c2)cc1 | 2.3 | 0.13 | 78 | 
COc1cc(F)ccc1-c1ccc([C@@H](CC(=O)O)NC(=O)[C@@H]2CCCN2S(=O)(=O)c2cc(Cl)cc(Cl)c2)cc1 | 14.6 |  |  | 
COc1cccc(OC(F)(F)F)c1-c1ccc([C@@H](CC(=O)O)NC(=O)[C@]2(C)CCCN2S(=O)(=O)c2cc(Cl)cc(Cl)c2)cc1 | 24.9 | 1.1 | 96 | 
COc1ccc(F)cc1-c1ccc([C@@H](CC(=O)O)NC(=O)[C@]2(C)CCCN2S(=O)(=O)c2cc(Cl)cc(Cl)c2)cc1 | 2.3 | 0.08 | 72 | 
COc1cc(F)cc(-c2ccc([C@@H](CC(=O)O)NC(=O)[C@]3(C)CCCN3S(=O)(=O)c3cc(Cl)cc(Cl)c3)cc2)c1 | 2.5 | 0.12 | 54 | 
COc1cccc(OC)c1-c1ccc([C@@H](CC(=O)O)NC(=O)[C@@H]2CCCN2S(=O)(=O)c2cc(Cl)cc(Cl)c2)cc1 | 51.6 | 1.4 | 108 | 
COc1ccc(F)cc1-c1ccc([C@@H](CC(=O)O)NC(=O)[C@@H]2CCCN2S(=O)(=O)c2cc(Cl)cc(Cl)c2)cc1 | 13.1 | 0.58 | 180 | 
COc1ccccc1-c1ccc([C@@H](CC(=O)O)NC(=O)[C@@H]2CCN2S(=O)(=O)c2cc(Cl)cc(Cl)c2)cc1 | 5 | 0.12 | 144 | 22.1
COc1ccccc1-c1ccc([C@@H](CC(=O)O)NC(=O)[C@H]2CCCN2S(=O)(=O)c2cc(Cl)cc(Cl)c2)cc1 | 1.1 | 0.08 | 78 | 
COc1cccc(F)c1-c1ccc([C@@H](CC(=O)O)NC(=O)[C@@H]2CCCN2S(=O)(=O)c2cc(Cl)cc(Cl)c2)cc1 | 16.3 | 0.19 | 42 | 
COc1ccc([C@@H](CC(=O)O)NC(=O)[C@@H]2CCN2S(=O)(=O)c2cc(Cl)cc(Cl)c2)cc1 | 22.1 | 1.5 | 66 | 

— ChEMBL document CHEMBL1134900, “Substituted 3-amino biaryl propionic acids as potent VLA-4 antagonists” (Bioorg Med Chem Lett, 2002)
